Numbered stars: 1 amine (or outer) side, 2 acyl side, 3 side chain; on linkers, the order of the positions; unused ones are H or OH. Square brackets hold non-standard residues; d marks the D form. Side chains are listed from the residue outwards. Peptide text beside a SMILES is read from it. * marks the point of attachment. γGlu = O=C(O)[C@H](CCC(=O)[*:2])N[*:1]; Palmitoyl = CCCCCCCCCCCCCCCC(=O)*; Aib = CC(C)(N)C(=O)O
Experiments:
[1] = Thioflavin T (ThT) assay for physical stability (fibrillation); format: physicochemical; conditions: 3 mg/ml, 100 mM acetate pH 4.5 with m-cresol, 37° C. shaking
Outline: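 Peptides at 3 mg/ml final with 100 μM ThT final in 100 mM acetate pH 4.5 containing 2.7 mg/mL m-cresol, eight replicates. Stressed at 37° C by repeated cycles of 10 s shaking at 960 rpm and 50 s rest. Fluorescence read every 20 minutes; lag time in hours taken from the sigmoidal kinetic curve.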

[2] = system: female diabetic db/db mice; experiment: Acute effects after s.c. treatment on blood glucose in non-fasting female diabetic db/db mice; format: in vivo; conditions: single 30 μg/kg s.c.
Method: Female healthy, lean BKS.Cg-(lean)/OlaHsd and diabetes-prone, obese BKS.Cg-+Lepr^db/+Lepr^db/OlaHsd mice were ordered group housed from Envigo RMS Inc., shipped group housed and remained group housed in shoebox caging with wood chip bedding until day 15 of the predose phase. At the study start mice were approximately 12 weeks old.
Mice were housed under vivarium conditions including a 12 h light/dark cycle (light phase 04:00 AM-4:00 PM), room temperatures between 23-26° C. and a relative humidity between 30-70%. All animals had free access to water and Purina Fomulab Diet 5008.
On predose day 9 blood glucose and body mass (approximately between 08:00-10:00 AM) as well as HbA1c measurements were performed. On day 15 of the predose phase animals were assigned to treatment groups (n=8) and to new cages to match mean HbA1c and body masses between all db/db groups. An age-matched lean group was included in the study as a healthy, lean reference.
Prior to day 1 of the dosing phase, the test article was diluted with Phosphate Buffered Saline (PBS, Gibco, without CaCl2 and MgCl2) to a concentration of 1 mg/mL and aliquots of this stock solution were stored at approximately ≤−60° C. On day 1 of the dosing phase the stock aliquot was thawed and the injected test article solution was prepared fresh by diluting it with PBS to achieve the desired concentration.
On Day 1 of the dosing phase db/db mice were either treated once with a s.c. injection of PBS-vehicle or 30 μg/kg test article. The lean reference group was treated once with a s.c. injection of PBS-vehicle. The dosing was initiated and completed between 08:00 and 10:00 AM. The applied volume was 5 ml/kg and the dose was adjusted to the most recent body mass recording of each individual.
Animals had unlimited access to water and feed during the experiment. On day 1 of the dosing phase approximately 5 μL of blood were collected via tail clips at minute −30 and 0 prior to any other inlife activities. At minute 0 mice received a s.c. dose of either PBS-vehicle or 30 μg/kg test article. Further blood samples were harvested at hour 0.25, 0.5, 1, 1.5, 2, 3, 4, 6, 8, and 24 post-dose. Glucose measurements were performed in whole blood using AlphaTRAK glucometers. If the glucose concentrations of two measurements differed by more than 20 mg/dL a third value was recorded. The Area Under the Curve (AUC) for blood glucose was calculated via the trapezoid method and for the duration of the 24 post-dose hours.
In the Figures data are depicted as means±SEM. […] A One Way Analysis of Variance and multiple comparisons (Dunnett's Method) were performed comparing the group of diabetic, obese db/db vehicle mice (n=8) with each diabetic, obese db/db test article treated mice (n=8). […] Non-diabetic, lean-vehicle group data are depicted in the Figures serving as a reference dataset for the non-obese, non-diabetic state.

[3] = Chemical stability assessment, UPLC-UV purity loss in buffer system A; format: physicochemical; conditions: 1 mg/ml, 25 mM acetate buffer pH 4.5 with m-cresol
Outline: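 Peptide at 1 mg/mL pure compound (purity-corrected) in 25 mM acetate buffer pH 4.5 with L-methionine, m-cresol and glycerol was sterile-filtered and stored 28 days at 5 and 40° C. UPLC-UV purity (peptide peak area/total area) was compared with the starting value to give relative purity loss in %.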

| Lag time before increase [1] [h] | Chemical stability [relative purity loss 28 days 40° C.] (%) at pH 4.5 [3] [%] | Compound | mean blood glucose concentration 24 hours post-dose relative to baseline [2] | time to normalise hyperglycemia to the non-fasting blood glucose concentrations of lean reference mice [2] [h] |
| --- | --- | --- | --- | --- |
| >45 | 10.6 | CCCCCCCCCCCCCCCC(=O)N[C@@H](CCC(=O)N[C@@H](CCC(=O)NCCCC[C@H](NC(=O)[C@H](CC(C)C)NC(=O)[C@H](CCCCN)NC(=O)[C@H](CO)NC(=O)[C@H](CC(C)C)NC(=O)[C@H](CC(=O)O)NC(=O)[C@H](CO)NC(=O)[C@@H](NC(=O)[C@H](Cc1ccccc1)NC(=O)[C@@H](NC(=O)CNC(=O)[C@H](Cc1c[nH]cn1)NC(=O)C(C)(C)NC(=O)[C@@H](N)Cc1c[nH]cn1)[C@@H](C)O)[C@@H](C)O)C(=O)N[C@@H](CCC(=O)O)C(=O)N[C@@H](CCC(=O)O)C(=O)N[C@@H](CCC(N)=O)C(=O)N[C@@H](CCCNC(=N)N)C(=O)N[C@@H](CCC(N)=O)C(=O)NC(C)(C)C(=O)N[C@@H](CCC(=O)O)C(=O)N[C@@H](Cc1ccccc1)C(=O)N[C@H](C(=O)N[C@@H](CCC(=O)O)C(=O)N[C@@H](Cc1c[nH]c2ccccc12)C(=O)N[C@@H](CC(C)C)C(=O)N[C@@H](CCCCN)C(=O)N[C@@H](C)C(=O)NCC(=O)NCC(=O)N1CCC[C@H]1C(=O)N1CCC[C@H]1C(=O)N[C@@H](CO)C(=O)NC(C)(C)C(=O)N[C@@H](CCCCN)C(=O)N1CCC[C@H]1C(=O)N1CCC[C@H]1C(=O)N1CCC[C@H]1C(=O)N[C@@H](CCCCN)C(N)=O)[C@@H](C)CC)C(=O)O)C(=O)O [SEQ ID NO: 10, H-Aib-H-G-T-F-T-S-D-L-S-K-L-K[gGlu-gGlu-Palm]-E-E-Q-R-Q-Aib-E-F-I-E-W-L-K-A-G-G-P-P-S-Aib-K-P-P-P-K-NH2] | at or close to baseline |  |
| >45 | 8.8 | CCCCCCCCCCCCCCCC(=O)N[C@@H](CCC(=O)N[C@@H](CCC(=O)NCCCC[C@H](NC(=O)[C@H](CC(C)C)NC(=O)[C@H](CCCCN)NC(=O)[C@H](CO)NC(=O)[C@H](CC(C)C)NC(=O)[C@H](CC(=O)O)NC(=O)[C@H](CO)NC(=O)[C@@H](NC(=O)[C@H](Cc1ccccc1)NC(=O)[C@@H](NC(=O)CNC(=O)[C@H](Cc1c[nH]cn1)NC(=O)C(C)(C)NC(=O)[C@@H](N)Cc1c[nH]cn1)[C@@H](C)O)[C@@H](C)O)C(=O)N[C@@H](CCC(=O)O)C(=O)N[C@@H](CCC(=O)O)C(=O)N[C@@H](CCC(N)=O)C(=O)N[C@@H](CCCNC(=N)N)C(=O)N[C@@H](CCC(N)=O)C(=O)NC(C)(C)C(=O)N[C@@H](CCC(=O)O)C(=O)N[C@@H](Cc1ccccc1)C(=O)N[C@H](C(=O)N[C@@H](CCC(=O)O)C(=O)N[C@@H](Cc1c[nH]c2ccccc12)C(=O)N[C@@H](CC(C)C)C(=O)N[C@@H](CCCCN)C(=O)N[C@@H](C)C(=O)N[C@H](C)C(=O)NCC(=O)N1CCC[C@H]1C(=O)N1CCC[C@H]1C(=O)N[C@@H](CO)C(=O)NC(C)(C)C(=O)N[C@@H](CCCCN)C(=O)N1CCC[C@H]1C(=O)N1CCC[C@H]1C(=O)N1CCC[C@H]1C(=O)N[C@@H](CCCCN)C(N)=O)[C@@H](C)CC)C(=O)O)C(=O)O [SEQ ID NO: 11, H-Aib-H-G-T-F-T-S-D-L-S-K-L-K[gGlu-gGlu-Palm]-E-E-Q-R-Q-Aib-E-F-I-E-W-L-K-A-dAla-G-P-P-S-Aib-K-P-P-P-K-NH2] (H-H[Aib]HGTFTSDLSKLK([γGlu-γGlu-Palmitoyl])EEQRQ[Aib]EFIEWLKA[dA]GPPS[Aib]KPPPK-NH2) | still below baseline concentrations | ≤ 6 |
| >45 | 11.9 | CCCCCCCCCCCCCCCC(=O)N[C@@H](CCC(=O)N[C@@H](CCC(=O)NCCCC[C@H](NC(=O)[C@H](CC(C)C)NC(=O)[C@H](CCCCN)NC(=O)[C@H](CO)NC(=O)[C@H](CC(C)C)NC(=O)[C@H](CC(=O)O)NC(=O)[C@H](CO)NC(=O)[C@@H](NC(=O)[C@H](Cc1ccccc1)NC(=O)[C@@H](NC(=O)CNC(=O)[C@H](Cc1c[nH]cn1)NC(=O)C(C)(C)NC(=O)[C@@H](N)Cc1c[nH]cn1)[C@@H](C)O)[C@@H](C)O)C(=O)N[C@@H](CCC(=O)O)C(=O)N[C@@H](CCC(=O)O)C(=O)N[C@@H](CCC(N)=O)C(=O)N[C@@H](CCCNC(=N)N)C(=O)N[C@@H](CCC(N)=O)C(=O)NC(C)(C)C(=O)N[C@@H](CCC(=O)O)C(=O)N[C@@H](Cc1ccccc1)C(=O)N[C@H](C(=O)N[C@@H](CCC(=O)O)C(=O)N[C@@H](Cc1c[nH]c2ccccc12)C(=O)N[C@@H](CC(C)C)C(=O)N[C@@H](CCCCN)C(=O)N[C@@H](C)C(=O)NCC(=O)NCC(=O)N[C@@H](Cc1c[nH]cn1)C(=O)N1CCC[C@H]1C(=O)N[C@@H](CO)C(=O)NC(C)(C)C(=O)N[C@@H](CCCCN)C(=O)N1CCC[C@H]1C(=O)N1CCC[C@H]1C(=O)N1CCC[C@H]1C(=O)N[C@@H](CCCCN)C(N)=O)[C@@H](C)CC)C(=O)O)C(=O)O [SEQ ID NO: 12, H-Aib-H-G-T-F-T-S-D-L-S-K-L-K[gGlu-gGlu-Palm]-E-E-Q-R-Q-Aib-E-F-I-E-W-L-K-A-G-G-H-P-S-Aib-K-P-P-P-K-NH2] | at or close to baseline |  |
| >45 | 10.5 | CCCCCCCCCCCCCCCC(=O)N[C@@H](CCC(=O)N[C@@H](CCC(=O)NCCCC[C@H](NC(=O)[C@H](CC(C)C)NC(=O)[C@H](CCCCN)NC(=O)[C@H](CO)NC(=O)[C@H](CC(C)C)NC(=O)[C@H](CC(=O)O)NC(=O)[C@H](CO)NC(=O)[C@@H](NC(=O)[C@H](Cc1ccccc1)NC(=O)[C@@H](NC(=O)CNC(=O)[C@H](Cc1c[nH]cn1)NC(=O)C(C)(C)NC(=O)[C@@H](N)Cc1c[nH]cn1)[C@@H](C)O)[C@@H](C)O)C(=O)N[C@@H](CCC(=O)O)C(=O)N[C@@H](CCC(=O)O)C(=O)N[C@@H](CCC(N)=O)C(=O)N[C@@H](CCCNC(=N)N)C(=O)N[C@@H](CCC(N)=O)C(=O)NC(C)(C)C(=O)N[C@@H](CCC(=O)O)C(=O)N[C@@H](Cc1ccccc1)C(=O)N[C@H](C(=O)N[C@@H](CCC(=O)O)C(=O)N[C@@H](Cc1c[nH]c2ccccc12)C(=O)N[C@@H](CC(C)C)C(=O)N[C@@H](CCCCN)C(=O)N[C@@H](C)C(=O)N[C@H](C)C(=O)NCC(=O)N[C@@H](Cc1c[nH]cn1)C(=O)N1CCC[C@H]1C(=O)N[C@@H](CO)C(=O)NC(C)(C)C(=O)N[C@@H](CCCCN)C(=O)N1CCC[C@H]1C(=O)N1CCC[C@H]1C(=O)N1CCC[C@H]1C(=O)N[C@@H](CCCCN)C(N)=O)[C@@H](C)CC)C(=O)O)C(=O)O [SEQ ID NO: 13, H-Aib-H-G-T-F-T-S-D-L-S-K-L-K[gGlu-gGlu-Palm]-E-E-Q-R-Q-Aib-E-F-I-E-W-L-K-A-dAla-G-H-P-S-Aib-K-P-P-P-K-NH2] (H-H[Aib]HGTFTSDLSKLK([γGlu-γGlu-Palmitoyl])EEQRQ[Aib]EFIEWLKA[dA]GHPS[Aib]KPPPK-NH2) | at or close to baseline |  |

Source: US10538567B2, “Compounds as peptidic trigonal GLP1/glucagon/GIP receptor agonists” (priority 2016, dated 2020)
